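Where inhibition never reached the appropriate level, the endpoint shown equals the highest concentration tested. Otherwise, values were interpolated linearly from a five-concentration, 48-hour dose response in 96-well plates. TGI denotes the concentration required for complete inhibition of growth.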
Key:
Assay in all cases: NCI tumour cell line growth inhibition, 48 h
OVCAR-3 ovarian = system: OVCAR-3 ovarian
OVCAR-4 ovarian = system: OVCAR-4 ovarian
SF-539 CNS = system: SF-539 CNS
KM12 colon = system: KM12 colon
NCI-H460 lung = system: NCI-H460 lung
SNB-75 CNS = system: SNB-75 CNS
SN12C renal = system: SN12C renal
OVCAR-8 ovarian = system: OVCAR-8 ovarian
P388 leukemia = system: P388 leukemia
OVCAR-5 ovarian = system: OVCAR-5 ovarian
UACC-257 melanoma = system: UACC-257 melanoma
HL-60(TB) leukemia = system: HL-60(TB) leukemia
RPMI-8226 leukemia = system: RPMI-8226 leukemia
KM20L2 colon = system: KM20L2 colon
SK-MEL-28 melanoma = system: SK-MEL-28 melanoma
A498 renal = system: A498 renal
XF 498 CNS = system: XF 498 CNS
SK-MEL-2 melanoma = system: SK-MEL-2 melanoma
DLD-1 colon = system: DLD-1 colon
M19-MEL melanoma = system: M19-MEL melanoma
SK-OV-3 ovarian = system: SK-OV-3 ovarian
HOP-62 NSCLC = system: HOP-62 NSCLC
RXF 393 renal = system: RXF 393 renal
CAKI-1 renal = system: CAKI-1 renal
COLO 205 colon = system: COLO 205 colon
UO-31 renal = system: UO-31 renal
DMS 273 small cell lung = system: DMS 273 small cell lung
SK-MEL-5 melanoma = system: SK-MEL-5 melanoma
NCI-H23 lung = system: NCI-H23 lung
IGROV1 ovarian = system: IGROV1 ovarian
A549 NSCLC = system: A549 NSCLC
HCT-116 colon = system: HCT-116 colon
SNB-19 CNS = system: SNB-19 CNS
NCI/ADR-RES ovarian = system: NCI/ADR-RES ovarian
HCT-15 colon = system: HCT-15 colon
DMS 114 small cell lung = system: DMS 114 small cell lung
SW-620 colon = system: SW-620 colon
SN12K1 renal = system: SN12K1 renal
NCI-H522 lung = system: NCI-H522 lung
CCRF-CEM leukemia = system: CCRF-CEM leukemia
MCF7 breast = system: MCF7 breast
HOP-18 NSCLC = system: HOP-18 NSCLC
LOX IMVI melanoma = system: LOX IMVI melanoma
P388/ADR leukemia = system: P388/ADR leukemia
SNB-78 CNS = system: SNB-78 CNS
NCI-H226 lung = system: NCI-H226 lung
U251 CNS = system: U251 CNS
MOLT-4 leukemia = system: MOLT-4 leukemia
UACC-62 melanoma = system: UACC-62 melanoma
SF-268 CNS = system: SF-268 CNS
EKVX NSCLC = system: EKVX NSCLC
HT29 colon = system: HT29 colon
HOP-92 NSCLC = system: HOP-92 NSCLC
HCC-2998 colon = system: HCC-2998 colon
MALME-3M melanoma = system: MALME-3M melanoma
SF-295 CNS = system: SF-295 CNS
K-562 leukemia = system: K-562 leukemia
M14 melanoma = system: M14 melanoma
SR leukemia = system: SR leukemia
LXFL 529 NSCLC = system: LXFL 529 NSCLC
TK-10 renal = system: TK-10 renal
ACHN renal = system: ACHN renal
786-0 renal = system: 786-0 renal
RXF-631 renal = system: RXF-631 renal

`C/C([O-])=C(/c1nc(-c2ccc([N+](=O)[O-])o2)no1)[n+]1cc(C)ccc1C` showed a TGI (OVCAR-3 ovarian) of 37.7 µM, a TGI (OVCAR-4 ovarian) of 63.9 µM and a TGI (SF-539 CNS) of 27.6 µM. For the same compound, the TGI (KM12 colon) was 25.4 µM, the TGI (NCI-H460 lung) was 17.5 µM and the TGI (SNB-75 CNS) was greater than 49.9 µM. The TGI (SN12C renal) was 29.3 µM, the TGI (OVCAR-8 ovarian) was greater than 76.6 µM and the TGI (P388 leukemia) was greater than 100 µM. The TGI (OVCAR-5 ovarian) was 37.5 µM, the TGI (UACC-257 melanoma) was 24.2 µM and the TGI (HL-60(TB) leukemia) was 31.6 µM. For the same compound, the TGI (RPMI-8226 leukemia) was 55.2 µM, the TGI (KM20L2 colon) was 27.5 µM and the TGI (SK-MEL-28 melanoma) was 25.6 µM. It also gave a TGI (A498 renal) of 33.8 µM, a TGI (XF 498 CNS) of 21.1 µM and a TGI (SK-MEL-2 melanoma) of 19.7 µM. The TGI (DLD-1 colon) was 24.7 µM, the TGI (M19-MEL melanoma) was 17.6 µM and the TGI (SK-OV-3 ovarian) was greater than 79.3 µM. It also gave a TGI (HOP-62 NSCLC) of 37.3 µM, a TGI (RXF 393 renal) of 43.2 µM and a TGI (CAKI-1 renal) of 28.7 µM. The TGI (COLO 205 colon) was 15 µM, the TGI (UO-31 renal) was 40 µM and the TGI (DMS 273 small cell lung) was 26.1 µM. The TGI (SK-MEL-5 melanoma) was 23.4 µM, the TGI (NCI-H23 lung) was 24.9 µM and the TGI (IGROV1 ovarian) was greater than 81.6 µM. For the same compound, the TGI (A549 NSCLC) was 30.8 µM, the TGI (HCT-116 colon) was 18.5 µM and the TGI (SNB-19 CNS) was 41.5 µM. For the same compound, the TGI (NCI/ADR-RES ovarian) was greater than 100 µM, the TGI (HCT-15 colon) was 22.3 µM and the TGI (DMS 114 small cell lung) was 38.9 µM. It also gave a TGI (SW-620 colon) of 16.9 µM, a TGI (SN12K1 renal) of 28.6 µM and a TGI (NCI-H522 lung) of 14.4 µM. It also gave a TGI (CCRF-CEM leukemia) greater than 100 µM, a TGI (MCF7 breast) of 16.2 µM and a TGI (HOP-18 NSCLC) of 21.8 µM. It also gave a TGI (LOX IMVI melanoma) of 21.8 µM, a TGI (P388/ADR leukemia) greater than 100 µM and a TGI (SNB-78 CNS) greater than 100 µM. For the same compound, the TGI (NCI-H226 lung) was 31.6 µM, the TGI (U251 CNS) was 21.7 µM and the TGI (MOLT-4 leukemia) was greater than 100 µM. The TGI (UACC-62 melanoma) was 21.3 µM, the TGI (SF-268 CNS) was 62.3 µM and the TGI (EKVX NSCLC) was greater than 100 µM. For the same compound, the TGI (HT29 colon) was 22.7 µM, the TGI (HOP-92 NSCLC) was greater than 100 µM and the TGI (HCC-2998 colon) was 25.8 µM. It also gave a TGI (MALME-3M melanoma) of 28.2 µM, a TGI (SF-295 CNS) of 24.1 µM and a TGI (K-562 leukemia) greater than 51.9 µM.

For `O=C(NC1C=Nc2ccccc2NC1=O)c1ccccc1Cl` (stereo unspecified), the TGI (OVCAR-3 ovarian) was greater than 100 µM, the TGI (OVCAR-4 ovarian) was greater than 100 µM and the TGI (M14 melanoma) was greater than 100 µM. It also gave a TGI (SF-539 CNS) greater than 100 µM, a TGI (KM12 colon) greater than 100 µM and a TGI (SR leukemia) greater than 100 µM. For the same compound, the TGI (NCI-H460 lung) was greater than 100 µM, the TGI (SNB-75 CNS) was greater than 100 µM and the TGI (SN12C renal) was greater than 100 µM. The TGI (OVCAR-8 ovarian) was greater than 100 µM, the TGI (OVCAR-5 ovarian) was greater than 100 µM and the TGI (UACC-257 melanoma) was greater than 100 µM. It also gave a TGI (HL-60(TB) leukemia) of 54.1 µM, a TGI (KM20L2 colon) greater than 100 µM and a TGI (SK-MEL-28 melanoma) greater than 100 µM. The TGI (LXFL 529 NSCLC) was greater than 100 µM, the TGI (A498 renal) was greater than 100 µM and the TGI (XF 498 CNS) was greater than 100 µM. It also gave a TGI (SK-MEL-2 melanoma) greater than 100 µM, a TGI (DLD-1 colon) greater than 100 µM and a TGI (M19-MEL melanoma) greater than 100 µM. The TGI (SK-OV-3 ovarian) was greater than 100 µM, the TGI (HOP-62 NSCLC) was greater than 100 µM and the TGI (RXF 393 renal) was 62.9 µM. For the same compound, the TGI (TK-10 renal) was greater than 100 µM, the TGI (CAKI-1 renal) was greater than 100 µM and the TGI (COLO 205 colon) was 52.7 µM. It also gave a TGI (UO-31 renal) greater than 100 µM, a TGI (DMS 273 small cell lung) greater than 100 µM and a TGI (SK-MEL-5 melanoma) greater than 100 µM. The TGI (NCI-H23 lung) was greater than 100 µM, the TGI (IGROV1 ovarian) was greater than 100 µM and the TGI (ACHN renal) was greater than 100 µM. For the same compound, the TGI (A549 NSCLC) was greater than 100 µM, the TGI (HCT-116 colon) was greater than 100 µM and the TGI (SNB-19 CNS) was greater than 100 µM. It also gave a TGI (786-0 renal) greater than 100 µM, a TGI (HCT-15 colon) greater than 100 µM and a TGI (DMS 114 small cell lung) greater than 100 µM. The TGI (SW-620 colon) was 29 µM, the TGI (NCI-H522 lung) was greater than 100 µM and the TGI (CCRF-CEM leukemia) was greater than 100 µM. The TGI (HOP-18 NSCLC) was greater than 100 µM, the TGI (LOX IMVI melanoma) was greater than 100 µM and the TGI (SNB-78 CNS) was greater than 100 µM. The TGI (NCI-H226 lung) was greater than 100 µM, the TGI (U251 CNS) was greater than 100 µM and the TGI (MOLT-4 leukemia) was 54.4 µM. It also gave a TGI (UACC-62 melanoma) greater than 100 µM, a TGI (SF-268 CNS) greater than 100 µM and a TGI (EKVX NSCLC) greater than 100 µM. The TGI (HT29 colon) was greater than 100 µM, the TGI (HOP-92 NSCLC) was greater than 100 µM and the TGI (HCC-2998 colon) was greater than 100 µM. It also gave a TGI (MALME-3M melanoma) greater than 100 µM, a TGI (SF-295 CNS) greater than 100 µM and a TGI (K-562 leukemia) of 52.7 µM. The TGI (RXF-631 renal) was greater than 100 µM.

`NC(=S)N/N=C/c1ccc(OC(=O)COc2ccccc2Cl)cn1` gave a TGI (OVCAR-3 ovarian) of 99.1 µM, a TGI (OVCAR-4 ovarian) greater than 100 µM and a TGI (SF-539 CNS) of 52.2 µM. For the same compound, the TGI (KM12 colon) was greater than 100 µM, the TGI (NCI-H460 lung) was greater than 100 µM and the TGI (SNB-75 CNS) was greater than 100 µM. It also gave a TGI (SN12C renal) greater than 100 µM, a TGI (OVCAR-8 ovarian) greater than 100 µM and a TGI (P388 leukemia) of 13.4 µM. For the same compound, the TGI (OVCAR-5 ovarian) was 97.9 µM, the TGI (UACC-257 melanoma) was greater than 92.4 µM and the TGI (HL-60(TB) leukemia) was 64.9 µM. The TGI (RPMI-8226 leukemia) was greater than 100 µM, the TGI (KM20L2 colon) was greater than 100 µM and the TGI (SK-MEL-28 melanoma) was greater than 100 µM. The TGI (A498 renal) was greater than 100 µM, the TGI (XF 498 CNS) was greater than 92 µM and the TGI (SK-MEL-2 melanoma) was greater than 100 µM. It also gave a TGI (DLD-1 colon) greater than 100 µM, a TGI (M19-MEL melanoma) greater than 92.2 µM and a TGI (SK-OV-3 ovarian) greater than 100 µM. For the same compound, the TGI (HOP-62 NSCLC) was 67.4 µM, the TGI (RXF 393 renal) was greater than 100 µM and the TGI (CAKI-1 renal) was greater than 100 µM. It also gave a TGI (COLO 205 colon) greater than 100 µM, a TGI (UO-31 renal) of 98.5 µM and a TGI (DMS 273 small cell lung) greater than 71.6 µM. For the same compound, the TGI (SK-MEL-5 melanoma) was greater than 100 µM, the TGI (NCI-H23 lung) was greater than 70.5 µM and the TGI (IGROV1 ovarian) was greater than 100 µM. The TGI (A549 NSCLC) was greater than 100 µM, the TGI (HCT-116 colon) was greater than 90 µM and the TGI (SNB-19 CNS) was greater than 100 µM. The TGI (NCI/ADR-RES ovarian) was 59.3 µM, the TGI (HCT-15 colon) was greater than 100 µM and the TGI (SW-620 colon) was greater than 100 µM. It also gave a TGI (SN12K1 renal) greater than 100 µM, a TGI (NCI-H522 lung) greater than 77.2 µM and a TGI (CCRF-CEM leukemia) greater than 65.8 µM. For the same compound, the TGI (MCF7 breast) was greater than 100 µM, the TGI (HOP-18 NSCLC) was greater than 100 µM and the TGI (LOX IMVI melanoma) was greater than 100 µM. For the same compound, the TGI (P388/ADR leukemia) was 20.7 µM, the TGI (SNB-78 CNS) was greater than 100 µM and the TGI (NCI-H226 lung) was 73.9 µM. It also gave a TGI (U251 CNS) greater than 100 µM, a TGI (MOLT-4 leukemia) greater than 88.7 µM and a TGI (UACC-62 melanoma) of 42.7 µM. The TGI (SF-268 CNS) was greater than 100 µM, the TGI (EKVX NSCLC) was 97.8 µM and the TGI (HT29 colon) was greater than 100 µM. For the same compound, the TGI (HOP-92 NSCLC) was greater than 90.3 µM, the TGI (HCC-2998 colon) was greater than 87.4 µM and the TGI (MALME-3M melanoma) was greater than 88.7 µM. The TGI (SF-295 CNS) was greater than 100 µM and the TGI (K-562 leukemia) was greater than 100 µM.

From PubChem BioAssay (NCI)
